Laboratory results: PubChem BioAssay (NCI)
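A five-concentration, 48-hour dose response in 96-well plates underlies each endpoint, interpolated linearly between surrounding concentrations. At the GI50, growth is halved. TGI is the concentration that stops growth completely.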

Tests used:
Assay in all cases: inhibition of tumour cell growth, NCI panel, 48 h
SNB-75 CNS = system: SNB-75 CNS
IGROV1 ovarian = system: IGROV1 ovarian
HL-60(TB) leukemia = system: HL-60(TB) leukemia
MALME-3M melanoma = system: MALME-3M melanoma
COLO 205 colon = system: COLO 205 colon
KM12 colon = system: KM12 colon
SNB-19 CNS = system: SNB-19 CNS
EKVX NSCLC = system: EKVX NSCLC
SK-OV-3 ovarian = system: SK-OV-3 ovarian

`CC(=O)Nc1cc(N(CCOS(C)(=O)=O)CCOS(C)(=O)=O)ccc1N=O` was tested, and the TGI (SNB-75 CNS) was greater than 100 µM, the TGI (IGROV1 ovarian) was greater than 100 µM and the TGI (HL-60(TB) leukemia) was greater than 100 µM. For the same molecule, the TGI (MALME-3M melanoma) was greater than 100 µM, the TGI (COLO 205 colon) was greater than 100 µM and the TGI (KM12 colon) was greater than 100 µM. The TGI (SNB-19 CNS) was greater than 100 µM.
Work on `C=C(C)[C@@H]1CC[C@]2(C(=O)O)CC[C@]3(C)[C@H](CC[C@@H]4[C@@]5(C)C[C@@H](CC#Cc6ccc(C(F)(F)F)cc6)[C@H](O)C(C)(C)[C@@H]5CC[C@]43C)[C@@H]12` yielded a GI50 (SNB-75 CNS) of 1.73 µM, a TGI (SNB-75 CNS) of 5.14 µM and a GI50 (IGROV1 ovarian) of 3.56 µM. The TGI (IGROV1 ovarian) was greater than 100 µM, the GI50 (HL-60(TB) leukemia) was 6.2 µM and the TGI (HL-60(TB) leukemia) was greater than 100 µM. It also gave a GI50 (COLO 205 colon) of 3.72 µM, a TGI (COLO 205 colon) greater than 100 µM and a GI50 (KM12 colon) of 2.78 µM. For the same molecule, the TGI (KM12 colon) was greater than 100 µM, the GI50 (EKVX NSCLC) was 3.82 µM and the TGI (EKVX NSCLC) was greater than 100 µM. The GI50 (SNB-19 CNS) was 3.29 µM and the TGI (SNB-19 CNS) was greater than 100 µM.
In the case of `CCCCCCCCOCC(O)COC(=O)CCCCCCC` (stereo not given), the TGI (IGROV1 ovarian) is reported as greater than 100 µM, the TGI (HL-60(TB) leukemia) is reported as 93.9 µM and the TGI (MALME-3M melanoma) is reported as greater than 100 µM. It also gave a TGI (SK-OV-3 ovarian) greater than 100 µM, a TGI (COLO 205 colon) greater than 100 µM and a TGI (SNB-19 CNS) greater than 100 µM.
With `CCOC(=O)CSC(=O)NCCCl` the TGI (SNB-75 CNS) was greater than 100 µM, the TGI (IGROV1 ovarian) was greater than 100 µM and the GI50 (HL-60(TB) leukemia) was 22.3 µM. For the same molecule, the TGI (HL-60(TB) leukemia) was greater than 100 µM, the TGI (MALME-3M melanoma) was greater than 100 µM and the TGI (SK-OV-3 ovarian) was greater than 100 µM. For the same molecule, the TGI (COLO 205 colon) was greater than 100 µM, the TGI (KM12 colon) was greater than 100 µM and the TGI (EKVX NSCLC) was greater than 100 µM. For the same molecule, the TGI (SNB-19 CNS) was greater than 100 µM.
Molecule `NS(=O)(=O)c1ccc(NC2=CC(=O)C(=O)c3ccccc32)cc1` has a TGI (SNB-75 CNS) greater than 100 µM, a TGI (IGROV1 ovarian) greater than 100 µM and a TGI (HL-60(TB) leukemia) greater than 100 µM. The TGI (MALME-3M melanoma) was greater than 100 µM, the TGI (SK-OV-3 ovarian) was greater than 100 µM and the TGI (COLO 205 colon) was greater than 100 µM. For the same molecule, the TGI (KM12 colon) was greater than 100 µM, the TGI (EKVX NSCLC) was greater than 100 µM and the TGI (SNB-19 CNS) was greater than 100 µM.
Work on `CC(/C(=N\Nc1ccccc1)c1ccc(O)cc1)C1C(=O)Oc2ccccc21` (stereo not given) yielded a TGI (SNB-75 CNS) greater than 100 µM, a TGI (IGROV1 ovarian) greater than 100 µM and a TGI (HL-60(TB) leukemia) greater than 100 µM. For the same molecule, the TGI (MALME-3M melanoma) was greater than 100 µM, the TGI (COLO 205 colon) was greater than 100 µM and the TGI (KM12 colon) was greater than 100 µM. The TGI (EKVX NSCLC) was greater than 100 µM and the TGI (SNB-19 CNS) was greater than 100 µM.
With `COc1c(C(=O)c2ccc([N+](=O)[O-])cc2)cc(C(C)(C)C)cc1C(C)(C)C` the TGI (SNB-75 CNS) was greater than 100 µM, the TGI (IGROV1 ovarian) was greater than 100 µM and the TGI (HL-60(TB) leukemia) was 47.2 µM. The TGI (MALME-3M melanoma) was greater than 100 µM, the TGI (SK-OV-3 ovarian) was greater than 100 µM and the TGI (KM12 colon) was greater than 100 µM. The TGI (EKVX NSCLC) was greater than 100 µM and the TGI (SNB-19 CNS) was greater than 100 µM.
`Cc1ccc2ncnc(N(CC(C)C)CC(C)C)c2c1` was tested, and the GI50 (IGROV1 ovarian) was 23.4 µM, the TGI (IGROV1 ovarian) was greater than 100 µM and the GI50 (MALME-3M melanoma) was 16.8 µM. It also gave a TGI (MALME-3M melanoma) of 31.7 µM, a GI50 (SK-OV-3 ovarian) of 14.2 µM and a TGI (SK-OV-3 ovarian) of 29.7 µM. The GI50 (COLO 205 colon) was 16.9 µM, the TGI (COLO 205 colon) was 39.1 µM and the GI50 (KM12 colon) was 16.4 µM. The TGI (KM12 colon) was 40 µM, the GI50 (SNB-19 CNS) was 20.5 µM and the TGI (SNB-19 CNS) was 42.9 µM.
`COC(=O)C(C(=O)C(=O)Nc1nc(=S)[nH][nH]1)c1csc(-n2nc(-c3ccccc3)cc2-c2ccccc2)n1` (stereo not given) gave a TGI (SNB-75 CNS) of 78.5 µM, a TGI (IGROV1 ovarian) greater than 100 µM and a TGI (HL-60(TB) leukemia) greater than 100 µM. For the same molecule, the TGI (MALME-3M melanoma) was greater than 100 µM, the TGI (SK-OV-3 ovarian) was greater than 100 µM and the TGI (COLO 205 colon) was greater than 100 µM. For the same molecule, the TGI (KM12 colon) was greater than 100 µM, the TGI (EKVX NSCLC) was greater than 100 µM and the TGI (SNB-19 CNS) was greater than 100 µM.
In the case of `COC(=O)/C=C(\C(=O)OC)c1c2c3c(cc(OC)c(OC)c3c3ccccc13)CCN2C`, the TGI (SNB-75 CNS) is reported as greater than 100 µM, the TGI (IGROV1 ovarian) is reported as 99.4 µM and the TGI (HL-60(TB) leukemia) is reported as 56.3 µM. For the same molecule, the TGI (MALME-3M melanoma) was greater than 100 µM, the TGI (SK-OV-3 ovarian) was greater than 100 µM and the TGI (COLO 205 colon) was 31.7 µM. It also gave a TGI (KM12 colon) greater than 100 µM, a TGI (EKVX NSCLC) greater than 100 µM and a TGI (SNB-19 CNS) greater than 100 µM.
`COC(=O)C(CC(C)C)NC(=O)NC12CC3CC(CC(F)(C3)C1)C2` (stereo not given) gave a TGI (SNB-75 CNS) greater than 100 µM, a TGI (IGROV1 ovarian) greater than 100 µM and a TGI (HL-60(TB) leukemia) greater than 100 µM. For the same molecule, the TGI (MALME-3M melanoma) was greater than 100 µM, the TGI (SK-OV-3 ovarian) was greater than 100 µM and the TGI (COLO 205 colon) was greater than 100 µM. The TGI (KM12 colon) was greater than 100 µM, the TGI (EKVX NSCLC) was greater than 100 µM and the TGI (SNB-19 CNS) was greater than 100 µM.
For `CC1CC(=O)Nc2ccccc2N1C(=O)CN1CCC(CCCCN(C)C)CC1` (stereo not given), the TGI (SNB-75 CNS) was greater than 100 µM, the TGI (IGROV1 ovarian) was greater than 100 µM and the TGI (HL-60(TB) leukemia) was greater than 100 µM. It also gave a TGI (MALME-3M melanoma) greater than 100 µM, a TGI (COLO 205 colon) greater than 100 µM and a TGI (KM12 colon) greater than 100 µM. For the same molecule, the TGI (EKVX NSCLC) was greater than 100 µM and the TGI (SNB-19 CNS) was greater than 100 µM.
`O=C(c1ccccc1)[C@H]1Nc2ccc(Cl)cc2C2c3ccccc3CC21` (stereo not given in full) gave a TGI (SNB-75 CNS) greater than 100 µM, a TGI (IGROV1 ovarian) greater than 100 µM and a TGI (COLO 205 colon) greater than 100 µM. For the same molecule, the TGI (KM12 colon) was greater than 100 µM and the TGI (SNB-19 CNS) was greater than 100 µM.
`CC1C[C@H](C)CC(C(O)CC2CC(=O)N(Cc3ccccc3)C(=O)C2)C1O` (stereo not given in full) gave a TGI (SNB-75 CNS) greater than 100 µM, a TGI (IGROV1 ovarian) greater than 100 µM and a TGI (HL-60(TB) leukemia) greater than 100 µM. It also gave a TGI (MALME-3M melanoma) greater than 100 µM, a TGI (SK-OV-3 ovarian) greater than 100 µM and a TGI (COLO 205 colon) greater than 100 µM. It also gave a TGI (KM12 colon) greater than 100 µM, a TGI (EKVX NSCLC) greater than 100 µM and a TGI (SNB-19 CNS) greater than 100 µM.
For `COC(=O)C(Cc1cc(OC)c(OC)c(OC)c1)c1ccc(OC)cc1` (stereo not given), the TGI (IGROV1 ovarian) was greater than 100 µM, the TGI (HL-60(TB) leukemia) was greater than 100 µM and the TGI (MALME-3M melanoma) was greater than 100 µM. It also gave a TGI (COLO 205 colon) greater than 100 µM, a TGI (KM12 colon) greater than 100 µM and a TGI (EKVX NSCLC) greater than 100 µM. For the same molecule, the TGI (SNB-19 CNS) was greater than 100 µM.
`Cc1ccc(NC(=O)C(=O)C(C#N)c2nc(-c3ccc(-c4ccccc4)cc3)cs2)c(C)c1` (stereo not given) showed a TGI (SNB-75 CNS) greater than 100 µM, a TGI (IGROV1 ovarian) greater than 100 µM and a TGI (MALME-3M melanoma) greater than 100 µM. The TGI (SK-OV-3 ovarian) was greater than 100 µM, the TGI (COLO 205 colon) was greater than 100 µM and the TGI (EKVX NSCLC) was greater than 100 µM. It also gave a TGI (SNB-19 CNS) greater than 100 µM.
For `O=C1c2ccccc2C(=O)N1CCN(CCN1C(=O)c2ccccc2C1=O)Cn1cccn1`, the TGI (SNB-75 CNS) was greater than 100 µM, the TGI (HL-60(TB) leukemia) was 74.5 µM and the TGI (SK-OV-3 ovarian) was greater than 100 µM. The TGI (COLO 205 colon) was greater than 100 µM, the TGI (KM12 colon) was greater than 100 µM and the TGI (EKVX NSCLC) was greater than 100 µM. The TGI (SNB-19 CNS) was greater than 100 µM.
`OCC(O)C(O)C(O)c1nn(-c2ccc(Cl)cc2)c2nc3cc(Cl)c(Cl)cc3nc12` (stereo not given) was tested, and the TGI (SNB-75 CNS) was 11.1 µM, the TGI (IGROV1 ovarian) was greater than 100 µM and the TGI (HL-60(TB) leukemia) was greater than 100 µM. It also gave a TGI (MALME-3M melanoma) of 71 µM, a TGI (SK-OV-3 ovarian) of 58.6 µM and a TGI (COLO 205 colon) greater than 100 µM. For the same molecule, the TGI (EKVX NSCLC) was 67.9 µM and the TGI (SNB-19 CNS) was greater than 100 µM.
`O=C(O)C[C@H]1CCCCC12CCOC2=O` (stereo not given in full) gave a TGI (SNB-75 CNS) greater than 100 µM, a TGI (IGROV1 ovarian) greater than 100 µM and a TGI (HL-60(TB) leukemia) greater than 100 µM. For the same molecule, the TGI (SK-OV-3 ovarian) was greater than 100 µM, the TGI (COLO 205 colon) was greater than 100 µM and the TGI (KM12 colon) was greater than 100 µM. The TGI (EKVX NSCLC) was greater than 100 µM and the TGI (SNB-19 CNS) was greater than 100 µM.
